For this assay, the system named is 422866-222-R5-J1-PDC spheroids with HUVEC/MSC, viability. Briefly: Anticancer human tumor 422866-222-R5-J1-PDC patient-derived pancreatic adenocarcinoma cell line growth inhibition [GQUAD]. As to conditions: for viability, T/C: stronger effect = lower value. An excerpt:
DNA G-quadruplex Stabilizer Agents in Combinations in Complex Spheroids
A high-throughput screen of multi-cell type tumor spheroids was designed to identify active combinations of DNA G-quadruplex stabilizer agents and targeted small molecules. Complex spheroids include a stromal component modeled by human endothelial cells (HUVEC) and fibroblasts modeled by human mesenchymal stem cells (MSCs). The concentration ranges selected for each drug and investigational agent were based upon clinically achievable concentrations if the clinical Cmax of the agent was known.
Compounds. The drugs and investigational agents: pidnarulex (CX-5461; NSC782164), APTO-253 (NSC789042), BRACO-19 (NSC847499), peposertib (NSC802822), ceralasertib (NSC780249), elimusertib (NSC800525), camonsertib (NSC841442), AZD-1390 (NSC803789), olaparib (NSC753686), talazoparib (NSC767125), ART-558 (NSC835418), sotorasib (NSC818433), MRTX-1133 (NSC836407), SN-38 (NSC673596), topotecan (NSC609699), etoposide (NSC141540), doxorubicin (NSC123127), gemcitabine (NSC613327), 5-fluorouracil (NSC19893), paclitaxel (NSC125973), vemurafenib (NSC761431), panobinostat (NSC761190), R-306465 (JNJ-16241199; NSC773264), adavosertib (NSC754352), TP-3654 (NSC805149), carboplatin (NSC241240), KSQ-4279 (NSC840948), and staurosporine (NSC755774) were obtained from the National Cancer Institute (NCI) Developmental Therapeutics Program Chemical Repository (34). The FDA-approved anticancer drug set is available from the NCI Developmental Therapeutics Program. […] The stock solutions were prepared in dimethyl sulfoxide (DMSO, Sigma-Aldrich, St. Louis, MO, cat. D2650) at 800-fold the tested concentration and stored at -70 degrees C prior to their use. All drugs and investigational agents were tested over a range starting from a high concentration at or near the clinical Cmax and decreasing in half-log increments. If the clinical Cmax for an agent had not been determined, the highest concentration tested was 10 microM.
2.3 Cell Culture. All cells were maintained in an incubator at 37 degrees C and 5% CO2 with 95% humidity. The PDC lines were cultured according to standard operating procedures established by the NCI PDMR. All PDCs were thawed and cultured in Matrigel-coated flasks prepared with a working solution of 1X Ham's F-12 nutrient mix, without supplementation (Invitrogen, cat. 11765054), 100 U/mL penicillin-streptomycin (Invitrogen, cat. 15140122), and 2.5% Matrigel (Corning Inc., cat. 354248) for the first three passages. The 857933-349-R-J2-PDC line was cultured in 6C/Colon 1B media, which includes advanced DMEM/F-12 (Thermo Fisher Scientific, cat. 12634028), 10 mM HEPES (Thermo Fisher Scientific, cat. 15630080), 1X GlutaMAX supplement (Thermo Fisher Scientific, cat. 35050061), 0.1 mg/mL primocin (InvivoGen, cat. ant-pm-2), 10% defined fetal bovine serum, heat inactivated (HyClone Laboratories Inc., cat. SH30070.03HI), 50% L-WRN conditioned media (ATCC, cat. CRL-3276), 1.25 mM N-Acetyl-L-cysteine (Sigma-Aldrich, cat. A9165), 10 mM nicotinamide (Sigma-Aldrich, cat. N0636), 1X B-27 supplement (Thermo Fisher Scientific, cat. 17504044), 1X N-2 supplement (Thermo Fisher Scientific, cat. 17502048), 10 microM Y-27632 dihydrochloride (Tocris Bioscience, cat. 1254), and 50 ng/mL human EGF recombinant protein (Thermo Fisher Scientific, cat. PHG0311). The 485176-168-R4-J1-PDC line was cultured in Panc media, which includes all 6C/Colon 1B media components plus 100 ng/mL human FGF-10 (Thermo Fisher Scientific, cat. 100-26), 500 nM SB-431542 (Selleckchem, cat. S1067), and gastrin (Tocris, cat. 3006).
[…]

Usually viability, T/C stands for the result in the treated group divided by that in the control group, in per cent. Usually IC50 stands for the concentration at which inhibition is half-maximal.

Where “and” joins values, the source holds several entries; their conditions need not be identical. Identical values can stand only once.
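Also: spheroids exposed to compounds for seven days before reading.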
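For viability, T/C in this document: percent viability relative to DMSO vehicle control taken as 100%.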

Regarding `Cc1cccc(N(C)C(=O)C2C(O)CCN2c2nc(C)cc(C(F)(F)F)c2C#N)c1` (stereo not drawn), the viability, T/C is 96.3% and 97.3% and 82.4% (compound 0.0316 µM); 103% and 95.9% and 89.9% (compound 0.1 µM); 103% and 102% and 96.2% (compound 0.316 µM); 101% and 96.9% and 109% (compound 1 µM); 99.9% and 77.2% and 105% (compound 3.16 µM); 108% and 97.5% and 98% (compound 10 µM). Also, the IC50 (curve of compound) is > 10000 nM.

As to `O=c1[nH]cc(F)c(=O)[nH]1` + Cc1cnc(CNC(=O)c2c(=O)c3ccc(N4CCCN(C)CC4)nc3n3c2sc2ccccc23)cn1, the IC50 is > 10000 nM (curve of first compound, second compound 0.0316 µM); > 10000 nM (curve of first compound, second compound 0.1 µM); > 10000 nM (curve of first compound, second compound 0.316 µM); > 10000 nM (curve of first compound, second compound 1 µM); > 10000 nM (curve of first compound, second compound 3.16 µM); > 10000 nM (curve of first compound, second compound 10 µM). The viability, T/C is, setting by setting: (second compound 0.0316 µM, first compound 0.0316 µM) 90%; (second compound 0.0316 µM, first compound 0.1 µM) 93.1%; (second compound 0.0316 µM, first compound 0.316 µM) 88.2%; (second compound 0.0316 µM, first compound 1 µM) 88.8%; (second compound 0.0316 µM, first compound 3.16 µM) 78%; (second compound 0.0316 µM, first compound 10 µM) 78.7%. Further, the viability, T/C is 94.5% (second compound 0.1 µM, first compound 0.0316 µM); 79.6% (second compound 0.1 µM, first compound 0.1 µM); 89.4% (second compound 0.1 µM, first compound 0.316 µM); 95.5% (second compound 0.1 µM, first compound 1 µM); 85.8% (second compound 0.1 µM, first compound 3.16 µM); 87.5% (second compound 0.1 µM, first compound 10 µM). Moreover, the viability, T/C is 85.6% (second compound 0.316 µM, first compound 0.0316 µM); 69.4% (second compound 0.316 µM, first compound 0.1 µM); 96.1% (second compound 0.316 µM, first compound 0.316 µM); 83.3% (second compound 0.316 µM, first compound 1 µM); 89.7% (second compound 0.316 µM, first compound 3.16 µM); 92.2% (second compound 0.316 µM, first compound 10 µM). The viability, T/C was 88.6% (second compound 1 µM, first compound 0.0316 µM); 85.8% (second compound 1 µM, first compound 0.1 µM); 85.2% (second compound 1 µM, first compound 0.316 µM); 104% (second compound 1 µM, first compound 1 µM); 105% (second compound 1 µM, first compound 3.16 µM); 104% (second compound 1 µM, first compound 10 µM). The viability, T/C was 83.1% (second compound 3.16 µM, first compound 0.0316 µM); 85.2% (second compound 3.16 µM, first compound 0.1 µM); 93.5% (second compound 3.16 µM, first compound 0.316 µM); 83.3% (second compound 3.16 µM, first compound 1 µM); 99.8% (second compound 3.16 µM, first compound 3.16 µM); 82.8% (second compound 3.16 µM, first compound 10 µM). The viability, T/C (second compound 10 µM, first compound 0.0316 µM) was 81.8%; the viability, T/C (second compound 10 µM, first compound 0.1 µM) was 78.4%; the viability, T/C (second compound 10 µM, first compound 0.316 µM) was 85.7%; the viability, T/C (second compound 10 µM, first compound 1 µM) was 80.6%; the viability, T/C (second compound 10 µM, first compound 3.16 µM) was 87.5%; the viability, T/C (second compound 10 µM, first compound 10 µM) is 76.4%.

For the molecule `Cc1[nH]c2ccccc2c1CCNCc1ccc(/C=C/C(=O)NO)cc1`, the viability, T/C was 94.9% and 82.3% and 89.6% (compound 0.000999 µM); 90.6% and 106% and 89.9% (compound 0.00316 µM); 110% and 121% and 100% (compound 0.00999 µM); 95.7% and 94.4% and 76.5% (compound 0.0316 µM); 88.5% and 62.9% and 66.2% (compound 0.0999 µM); 86.2% and 55.7% and 46.1% (compound 0.316 µM). Further, under “curve of compound”, the IC50 is > 316 nM and 254 nM.

As for `C#Cc1c(F)ccc2cc(O)cc(-c3ncc4c(N5CC6CCC(C5)N6)nc(OCC56CCCN5CC(F)C6)nc4c3F)c12` (stereo not drawn), the viability, T/C runs as follows: (compound 0.0316 µM) 98.8% and 99.8% and 86.7%; (compound 0.1 µM) 95.5% and 91.4% and 77.4%; (compound 0.316 µM) 94.1% and 82.6% and 77.7%; (compound 1 µM) 60.1% and 79% and 57.5%; (compound 3.16 µM) 41.3% and 43.9% and 36.5%; (compound 10 µM) 29.2% and 39.6% and 26.7%. Further, the IC50 (curve of compound) is 1770 nM and 2700 nM and 1530 nM.

(Values after PubChem BioAssay AID2060511 (Molecular Pharmacology Branch, DTP, NCI, 2025).)
